Measured values taken from patent publication US20220193111A1, “Method of Treatment” (The University Court of the University of Edinburgh, priority 2018, published 2022).

B1: miR-148b mimic: miR-148b mimic oligonucleotide; in a particular embodiment has SEQ ID NO: 1, the human precursor miR-148b sequence (nucleic acid)
chain: CAAGCACGAUUAGCAUUUGAGGUGAAGUUCUGUUAUACACUCAGGCUGUGGCUCUCUGAAAGUCAGUGCAUCACAGAACUUUGUCUCGAAAGCUUUCUA
modifications: listed as RNA, chemistry not given here

Assays:
[1] = tested on: skin wounds; experiment: Mouse model of skin wound healing (full-thickness excisional wounds); assay type: in vivo; details: for vessel density (CD31 positive vessels) / wound perfusion (laser Doppler): topical 1 μg/wound; for wound closure / expression of targets TGFB2 and SMAD2 in wound: topical 1 μg/wound every second day; for wound closure: 7 days; for wound perfusion (laser Doppler): 5 days post wounds
Procedure: All experiments involving mice were performed in accordance with the guidance and the operation of Animals (Scientific Procedures) Act 1986 and prior approval of the UK Home Office and the University of Edinburgh ethic committee. Skin wound healing protocol has been performed as described before^54-56. CD-1 female mice (7-9-week-old) (n=8 per group) were randomly assigned a treatment group and anaesthetized with isofluorane. Two full-thickness excisional wounds were made to the shaved dorsal skin. Full-thickness excisional wounds were made by picking up a fold of skin and using a sterile, disposable 5-mm biopsy punch (Kai Industries), resulting in generation of one wound on each side of the midline. Control oligonucleotides (scramble sequence), miR-148b mimic, Cy3-labeled miR-148b mimic or anti-miR-148b or SMAD2 siRNA (1 μg/wound) were delivered topically by pipette into the wound cavity (10 μl in a vehicle of 30% Pluronic F-127 gel [is liquid at 4° C. but solidifies at body temperature]; Sigma Aldrich). Mimics were initially delivered after 3 days, whereas anti-miR and siRNA were delivered immediately after wounding. The treatment was performed every second day for 7 days. Wounds were photographed using an Olympus camera on days 0, 2, 4, 6, and 7 after wounding. Wound areas were calculated as previously described^54, 55. To this aim, two perpendicular diameters of the wound were measured by using a Vernier caliper and wound area was calculated using a standard formula for the area of an ellipse (semi-major diameter X semi-minor diameter X Pi). The superficial blood flow of the wounds was sequentially analysed by colour laser Doppler (Colour laser Doppler, Moor, UK), and the ratio of blood flow between the mimic or anti-miR or siRNA treated and the control treated wounds was calculated. Wound size and Doppler analysis was performed in blinded fashion.
Wounds were harvested, prepared, and analysed essentially as previously described^54-56. At days 5 or 7 post-wounding, wounds were harvested and fixed in 10% buffered formalin (16 h at 4° C., Sigma) for embedding in paraffin. Sectioning was done through the wound beyond the midpoint and wound centres as identified by staining with Haematoxylin and Eosin (Sigma). Sections were deparaffinised, rehydrated and stained with rat anti-mouse polyclonal CD31 (Abcam, ab28364, 1:50), α-SMA (Sigma, A2547, 1:100) rabbit anti-mouse FSP-1 (Abcam, ab41532, 1:50), and SLUG (Abcam, […], 1:200); all antibodies overnight at 4° C.
Zeiss LSM 780 Confocal Microscope (Zeiss). Vascular density in wounds was counted after staining for CD31 and α-SMA. Ten fields per section/animal (n=8 animal; 400× magnification) were randomly examined and averaged to analyse the number of CD31-positive blood vessels in the wound edges. Images collection was performed manually. Image analysis was performed using Image J software as previously reported in^54. Vascular density is expressed per square millimetre. EndMT of ECs was assessed by FSP-1 and SLUG staining combined with CD31 staining. CD31-FSP-1 and CD31-SLUG double positive vessels are expressed as percentage of positive vessels. For analysis of fibrosis: the slides of the staining were examined and photomicrographed in a blinded fashion using a light microscope (Axioscope 2; Zeiss). Six images per slide were captured at 400× magnification for both histological staining. The colour deconvolution ImageJ software was used to evaluate the percentage of red staining which indicate the presence of collagen fibres in the tissue. The morphometric analysis corresponding to the red colours was measured as the percentage of total pixels in each image, using the Threshold (Image J software).

[2] = tested on: HUVECs; experiment: BrdU incorporation assay (EC proliferation); assay type: cell-based, human; details: transfected 48 hrs (mimic 25 nM, anti-miR 75 mM)
Procedure: (§1) Lipofectamine RNAiMAX (Thermo Fisher Scientific) was used to transfect HUVECs with miR-148b mimic, anti-miR-148b and mimic or anti-miR control (25 nM and […], respectively final concentration) or with siRNA targeting SMAD2 (20 nM final concentration), according to the manufacturer's instructions. jetPEI-HUVECs (Polyplus) was used to transfect HUVECs with DNA plasmids. The following functional assays were performed: BrdU incorporation assay using Cell Proliferation colorimetric assay (Roche); Matrigel assay with HUVECs was performed as previously described using BD Matrigel Basement Membrane Matrix (BD Biosciences)^53.

[3] = tested on: HUVECs; experiment: ECIS migration assay; assay type: cell-based, human; details: transfected 48 hrs (mimic 25 nM, anti-miR 75 mM)
Procedure: Confluent HUVECs were transfected with controls or miR-148b mimic or anti-miR-148b and, plated on the ECIS chip array (8W1E or 8W10E). The migration speed was calculated in μm/h, capacitance of the plasma membrane is Cm (μF/cm^2) as reported in Giaever, I, and Keese, C R (1991)^29.

[4] = tested on: HUVECs; experiment: Matrigel assay (tube formation); assay type: cell-based, human; details: transfected 48 hrs (mimic 25 nM, anti-miR 75 mM)
Procedure: as §1

Row | Molecule | collagen deposition (PicroSirius Red) ([1]; day 7 after wounding) | CD31-FSP-1 or CD31-SLUG double-positive vessels in wound edge ([1]; delivered immediately after wounding and every two days, day 7) | skin vessels that demonstrated mesenchymal transition (EndMT) ([1]; following delivery to the wounds) | vessel density (CD31 positive vessels) [1] | wound closure [1] | expression of targets TGFB2 and SMAD2 in wound ([1]; day 7 after wounding) | wound perfusion (laser Doppler) [1] | total number of FSP-1 positive cells in wounds ([1]; vs control oligonucleotide-treated wounds, day 7) | proliferation of HUVECs (BrdU incorporation) [2] | EC migration (migration speed) [3] | tube formation / tubulogenesis in Matrigel assay (total tubules length) [4] | miR-148b expression in wound ([1]; topical, starting 3 days after wounding, day 7)
1 | anti-miR-148b: miR-148b inhibitor oligonucleotide; suitable inhibitor: hsa-miR-148b-3p miRCURY LNA inhibitor, CAAAGTTCTGTGATGCACTG (SEQ ID NO: 6) (commercial miRCURY LNA inhibitor, LNA positions not given here) | did not detect any increase | comprised of CD31-FSP-1 or CD31-SLUG double-positive vessels | around 20% | without effecting | markedly attenuated | increased | without effecting | increase | decreased | did not cause a change | did not cause a change | –
2 | B1 | – | – | – | significant increase | accelerated | decreasing | significant increase | – | significantly increased | significantly elevated | significantly elevated | increased
